Patent publication US10202361B2, “Pyridazinones as herbicides” (E I DU PONT DE NEMOURS AND COMPANY, priority 2014, dated 2019)
Like-named read-outs stand apart in the source and are kept apart here.

Columns and labels:
Format in all cases: in vivo
[1] = system: galium (catchweed bedstraw, Galium aparine); assay: Test C pre-/postemergence greenhouse herbicide test; details: Galium, read-out: Plant response rating; for pest or weed control at 31 g/ha: 31 g ai/ha; for pest or weed control at 62 g/ha: 62 g ai/ha; for pest or weed control at 125 g/ha: 125 g ai/ha; for pest or weed control at 250 g/ha: 250 g ai/ha
Summary of the method: (§1)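 Plant response is scored on a 0–100 scale, where 100 means complete control, by visual comparison with controls 13 to 15 d after greenhouse treatment. Applications are made pre- and postemergence using a surfactant-containing, non-phytotoxic solvent formulation.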

[2] = system: barnyardgrass (Echinochloa crus-galli); assay: as above; details: Barnyardgrass
Summary of the method: as §1

[3] = system: crabgrass, Large (large crabgrass, Digitaria sanguinalis); assay: Test A pre-/postemergence greenhouse herbicide test; details: Digitaria sanguinalis, 240 h, 0 to 100 scale (0 no effect, 100 complete control), approx. 10 d, read-out: Plant response rating, Crabgrass, Large; for pest or weed control at 125 g/ha: 125 g ai/ha; for pest or weed control at 500 g/ha: 500 g ai/ha
Summary of the method: (§2)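 Seeds sown in loam–sand blend received a directed preemergence soil spray; postemergence spray was applied at the same time to plants 2–10 cm tall at one- to two-leaf stage. Compounds were in non-phytotoxic solvent with surfactant. Visual injury versus untreated controls after ~10 d in greenhouse, 0–100 scale (100 = complete control).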

[4] = system: velvetleaf (Abutilon theophrasti); assay: as above; details: Abutilon theophrasti, 240 h, 0 to 100 scale (0 no effect, 100 complete control), approx. 10 d, read-out: Plant response rating, Velvetleaf; for pest or weed control at 125 g/ha: 125 g ai/ha; for pest or weed control at 500 g/ha: 500 g ai/ha
Summary of the method: as §2

corn (Zea mays) = assay: as above; details: Zea mays, 240 h, 0 to 100 scale (0 no effect, 100 complete control), approx. 10 d; for Corn plant response rating (crop injury, 0 = no effect, 100 = complete kill) at 125 g/ha: 125 g ai/ha; for Corn plant response rating (crop injury, 0 = no effect, 100 = complete kill) at 500 g/ha: 500 g ai/ha
Summary of the method: as §2

[5] = system: wheat (Triticum aestivum); assay: as above; details: Triticum aestivum, 240 h, 0 to 100 scale (0 no effect, 100 complete control), approx. 10 d, read-out: Plant response rating, Wheat; for plant injury at 125 g/ha: 125 g ai/ha; for plant injury at 500 g/ha: 500 g ai/ha
Summary of the method: as §2

[6] = system: barnyardgrass (Echinochloa crus-galli); assay: as above; details: Echinochloa crus-galli, 240 h, 0 to 100 scale (0 no effect, 100 complete control), approx. 10 d, read-out: Plant response rating, Barnyardgrass; for pest or weed control at 125 g/ha: 125 g ai/ha; for pest or weed control at 500 g/ha: 500 g ai/ha
Summary of the method: as §2

[7] = system: pigweed (Amaranthus retroflexus); assay: as above; details: Amaranthus retroflexus, 240 h, 0 to 100 scale (0 no effect, 100 complete control), approx. 10 d, read-out: Plant response rating, Pigweed; for pest or weed control at 125 g/ha: 125 g ai/ha; for pest or weed control at 500 g/ha: 500 g ai/ha
Summary of the method: as §2

[8] = system: foxtail, giant (giant foxtail, Setaria faberii); assay: as above; details: Setaria faberi, 240 h, 0 to 100 scale (0 no effect, 100 complete control), approx. 10 d, read-out: Plant response rating, Foxtail, Giant; for pest or weed control at 125 g/ha: 125 g ai/ha; for pest or weed control at 500 g/ha: 500 g ai/ha
Summary of the method: as §2

[9] = system: morningglory (Ipomoea spp.); assay: as above; details: Ipomoea, 240 h, 0 to 100 scale (0 no effect, 100 complete control), approx. 10 d, read-out: Plant response rating, Morningglory; for pest or weed control at 125 g/ha: 125 g ai/ha; for pest or weed control at 500 g/ha: 500 g ai/ha
Summary of the method: as §2

Cc1cc(Oc2ccnc(C(F)(F)F)c2)nn(-c2ccc(C(F)(F)F)cc2)c1=O [Compound 6, 4-methyl-2-[4-(trifluoromethyl)phenyl]-6-[[2-(trifluoromethyl)-4-pyridinyl]oxy]-3(2H)-pyridazinone]
pest or weed control at 31 g/ha ([1]; post-emergence, Postemergence): 90%
pest or weed control at 62 g/ha ([1]; post-emergence, Postemergence): 90%
pest or weed control at 125 g/ha ([1]; post-emergence, Postemergence): 90%
pest or weed control at 250 g/ha ([1]; post-emergence, Postemergence): 90%
Plant response rating ([2]; Postemergence, 31 g ai/ha): 10
Plant response rating ([2]; Postemergence, 62 g ai/ha): 10
Plant response rating ([2]; Postemergence, 125 g ai/ha): 35
Plant response rating ([2]; Postemergence, 250 g ai/ha): 65
pest or weed control at 125 g/ha ([3]; post-emergence, Postemergence): 80%
pest or weed control at 500 g/ha ([3]; post-emergence, Postemergence): 90%
pest or weed control at 125 g/ha ([3]; pre-emergence, Preemergence): 100%
pest or weed control at 500 g/ha ([3]; pre-emergence, Preemergence): 100%
pest or weed control at 125 g/ha ([4]; post-emergence, Postemergence): 100%
pest or weed control at 500 g/ha ([4]; post-emergence, Postemergence): 100%
pest or weed control at 125 g/ha ([4]; pre-emergence, Preemergence): 70%
pest or weed control at 500 g/ha ([4]; pre-emergence, Preemergence): 80%
Corn plant response rating (crop injury, 0 = no effect, 100 = complete kill) at 125 g/ha (corn (Zea mays); post-emergence, Postemergence): 40%
Corn plant response rating (crop injury, 0 = no effect, 100 = complete kill) at 500 g/ha (corn (Zea mays); post-emergence, Postemergence): 50%
Corn plant response rating (crop injury, 0 = no effect, 100 = complete kill) at 125 g/ha (corn (Zea mays); pre-emergence, Preemergence): 10%
Corn plant response rating (crop injury, 0 = no effect, 100 = complete kill) at 500 g/ha (corn (Zea mays); pre-emergence, Preemergence): 20%
plant injury at 125 g/ha ([5]; post-emergence, Postemergence): 40%
plant injury at 500 g/ha ([5]; post-emergence, Postemergence): 50%
plant injury at 125 g/ha ([5]; pre-emergence, Preemergence): 10%
plant injury at 500 g/ha ([5]; pre-emergence, Preemergence): 30%
pest or weed control at 125 g/ha ([6]; post-emergence, Postemergence): 50%
pest or weed control at 500 g/ha ([6]; post-emergence, Postemergence): 90%
pest or weed control at 125 g/ha ([6]; pre-emergence, Preemergence): 40%
pest or weed control at 500 g/ha ([6]; pre-emergence, Preemergence): 80%
pest or weed control at 125 g/ha ([7]; post-emergence, Postemergence): 100%
pest or weed control at 500 g/ha ([7]; post-emergence, Postemergence): 100%
pest or weed control at 125 g/ha ([7]; pre-emergence, Preemergence): 100%
pest or weed control at 500 g/ha ([7]; pre-emergence, Preemergence): 100%
pest or weed control at 125 g/ha ([8]; post-emergence, Postemergence): 80%
pest or weed control at 500 g/ha ([8]; post-emergence, Postemergence): 100%
pest or weed control at 125 g/ha ([8]; pre-emergence, Preemergence): 100%
pest or weed control at 500 g/ha ([8]; pre-emergence, Preemergence): 100%
pest or weed control at 125 g/ha ([9]; post-emergence, Postemergence): 80%
pest or weed control at 500 g/ha ([9]; post-emergence, Postemergence): 100%
pest or weed control at 125 g/ha ([9]; pre-emergence, Preemergence): 80%
pest or weed control at 500 g/ha ([9]; pre-emergence, Preemergence): 90%

COc1cc(=O)n(-c2ccc(C(F)(F)F)cc2)nc1Cc1ccnc(C(F)(F)F)c1 [Compound 16, 5-methoxy-2-[4-(trifluoromethyl)phenyl]-6-[[2-(trifluoromethyl)-4-pyridinyl]methyl]-3(2H)-pyridazinone]
pest or weed control at 31 g/ha ([1]; post-emergence, Postemergence): 80%
pest or weed control at 62 g/ha ([1]; post-emergence, Postemergence): 80%
pest or weed control at 125 g/ha ([1]; post-emergence, Postemergence): 90%
pest or weed control at 250 g/ha ([1]; post-emergence, Postemergence): 90%
pest or weed control at 31 g/ha ([1]; pre-emergence, Preemergence): 70%
pest or weed control at 62 g/ha ([1]; pre-emergence, Preemergence): 98%
pest or weed control at 125 g/ha ([1]; pre-emergence, Preemergence): 100%
pest or weed control at 250 g/ha ([1]; pre-emergence, Preemergence): 100%
Plant response rating ([2]; Postemergence, 31 g ai/ha): 10
Plant response rating ([2]; Postemergence, 62 g ai/ha): 10
Plant response rating ([2]; Postemergence, 125 g ai/ha): 25
Plant response rating ([2]; Postemergence, 250 g ai/ha): 35
Plant response rating ([2]; Preemergence, 31 g ai/ha): 75
Plant response rating ([2]; Preemergence, 62 g ai/ha): 80
Plant response rating ([2]; Preemergence, 125 g ai/ha): 95
Plant response rating ([2]; Preemergence, 250 g ai/ha): 100
pest or weed control at 125 g/ha ([3]; post-emergence, Postemergence): 90%
pest or weed control at 500 g/ha ([3]; post-emergence, Postemergence): 100%
pest or weed control at 125 g/ha ([3]; pre-emergence, Preemergence): 100%
pest or weed control at 500 g/ha ([3]; pre-emergence, Preemergence): 100%
pest or weed control at 125 g/ha ([4]; post-emergence, Postemergence): 80%
pest or weed control at 500 g/ha ([4]; post-emergence, Postemergence): 100%
pest or weed control at 125 g/ha ([4]; pre-emergence, Preemergence): 30%
pest or weed control at 500 g/ha ([4]; pre-emergence, Preemergence): 80%
Corn plant response rating (crop injury, 0 = no effect, 100 = complete kill) at 125 g/ha (corn (Zea mays); post-emergence, Postemergence): 20%
Corn plant response rating (crop injury, 0 = no effect, 100 = complete kill) at 500 g/ha (corn (Zea mays); post-emergence, Postemergence): 80%
Corn plant response rating (crop injury, 0 = no effect, 100 = complete kill) at 125 g/ha (corn (Zea mays); pre-emergence, Preemergence): 40%
Corn plant response rating (crop injury, 0 = no effect, 100 = complete kill) at 500 g/ha (corn (Zea mays); pre-emergence, Preemergence): 70%
plant injury at 125 g/ha ([5]; post-emergence, Postemergence): 60%
plant injury at 500 g/ha ([5]; post-emergence, Postemergence): 70%
plant injury at 125 g/ha ([5]; pre-emergence, Preemergence): 20%
plant injury at 500 g/ha ([5]; pre-emergence, Preemergence): 70%
pest or weed control at 125 g/ha ([6]; post-emergence, Postemergence): 80%
pest or weed control at 500 g/ha ([6]; post-emergence, Postemergence): 90%
pest or weed control at 125 g/ha ([6]; pre-emergence, Preemergence): 90%
pest or weed control at 500 g/ha ([6]; pre-emergence, Preemergence): 100%
pest or weed control at 125 g/ha ([7]; post-emergence, Postemergence): 100%
pest or weed control at 500 g/ha ([7]; post-emergence, Postemergence): 100%
pest or weed control at 125 g/ha ([7]; pre-emergence, Preemergence): 100%
pest or weed control at 500 g/ha ([7]; pre-emergence, Preemergence): 100%
pest or weed control at 125 g/ha ([8]; post-emergence, Postemergence): 90%
pest or weed control at 500 g/ha ([8]; post-emergence, Postemergence): 90%
pest or weed control at 125 g/ha ([8]; pre-emergence, Preemergence): 100%
pest or weed control at 500 g/ha ([8]; pre-emergence, Preemergence): 100%
pest or weed control at 125 g/ha ([9]; post-emergence, Postemergence): 90%
pest or weed control at 500 g/ha ([9]; post-emergence, Postemergence): 100%
pest or weed control at 125 g/ha ([9]; pre-emergence, Preemergence): 80%
pest or weed control at 500 g/ha ([9]; pre-emergence, Preemergence): 80%
